This assay concerns mice. Nature of the assay: Neuropharmacological Assay (SmartCube): automated behavioral signature of compound-treated mice compared with a database of reference drug classes. It counts as in vivo. To be noted: for minimal effective dose: Mus musculus, ip, i.p., that dose is shown. The gist of the method: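 Probabilities of matching each neuropharmacological class (e.g. anxiolytic, antidepressant) come from algorithmic analysis of digitally recorded behaviour, reported for 3.0 mg/kg. Compounds were given intraperitoneally in a Pharmasolve/PEG/propylene glycol vehicle 15 min pre-test. Minimal effective dose is the lowest dose reaching 45% or more total activity.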

The mark [1] stands for this setting: SmartCube probability class, 3.0 mg/kg dose, i.p. 15 min before the behavioral test.
[2] abbreviates: dose having 45% or more total activity in SmartCube, if only one dose was tested, read-out: MED (minimal effective dose).
The mark [3] stands for this setting: probability that activity matches this class of agents, 3.0 mg/kg i.p., 15 min before test.
[4] abbreviates: probability that activity matches this class of agents, 3.0 mg/kg i.p., 15 min before test, hydrochloride, 3 mg/kg.
[5] abbreviates: minimal effective dose: dose having 45% or more total activity in SmartCube, if only one dose tested, read-out: MED.
The mark [6] stands for this setting: SmartCube class probability, 3.0 mg/kg i.p., 15 min before test.

The structures appear in SMILES notation. Structures can show the parent of a compound that is named as a salt. Where two headings read alike, the source gives them in different places.

On to `CNC1COc2scc(C)c2C1` (stereo not drawn) [Compound 308, N, 5-dimethyl-3,4-dihydro-2H-thieno[2,3-b]pyran-3-amine hydrochloride], for which the minimal effective dose (minimal effective dose: dose having 45% or more total activity in SmartCube, if only one dose was tested, read-out: MED) was < 3 mg/kg. Further, under setting [1], the AD entry is listed as “ND (^ <4%)”, the AG result is on record as “ND (^ <4%)”, the AN result is listed as “ND (^ <4%)” and the AP result was “++++ (≥74%)”. Under setting [1], the AX entry is on record as “ND (^ <4%)”, the CE result was “ND (^ <4%)”, the HL entry is reported as “ND (^ <4%)” and the MS entry was “ND (^ <4%)”. Moreover, under setting [1], the PS result is reported as “ND (^ <4%)”, the SH result is “ND (^ <4%)” and the UK entry is “ND (^ <4%)”.

For `CNC1CCc2cscc2C1.Cl` (single isomer, unassigned) [Compound 13, N-methyl-4,5,6,7-tetrahydro-2-benzothiophen-5-amine hydrochloride], the minimal effective dose under setting [2] was 0.3 mg/kg. In addition, under setting [3], the AG result is on record as “ND (^ <4%)”, the AN entry was “ND (^ <4%)”, the AX entry is “+ (≥4%)” and the HL entry was “ND (^ <4%)”. Also, under setting [3], the MS entry was “ND (^ <4%)”, the PS result is reported as “ND (^ <4%)”, the SH result is listed as “ND (^ <4%)” and the UK result is listed as “ND (^ <4%)”. Besides, under setting [4], the AD result is “ND (^ <4%)”, the AP entry is on record as “+++ (≥49%)” and the CE result is “+ (≥4%)”.

Consider `CNC1(C)COc2c(C)csc2C1` (racemic) [Compound 238, N, 3,6-trimethyl-6,7-dihydro-5H-thieno[3,2-b]pyran-6-amine hydrochloride], for which, under setting [5], the minimal effective dose is > 3 mg/kg. Also, under setting [6], the AD entry is recorded as “ND (^ <4%)”, the AG entry is “ND (^ <4%)”, the AN entry is “ND (^ <4%)” and the AP entry was “ND (^ <4%)”. Also, under setting [6], the AX entry was “ND (^ <4%)”, the CE entry is reported as “ND (^ <4%)”, the HL entry was “ND (^ <4%)” and the MS result is “ND (^ <4%)”. Under setting [6], the PS result is recorded as “ND (^ <4%)”, the SH result is reported as “ND (^ <4%)” and the UK entry was “++ (≥24%)”.

As for `CNC1COc2cc(C)sc2C1` (stereo not drawn) [Compound 181, N, 2-dimethyl-6,7-dihydro-5H-thieno[3,2-b]pyran-6-amine hydrochloride], the minimal effective dose under setting [5] is > 3 mg/kg. Under setting [6], the AD entry is given as “ND (^ <4%)”, the AG result is on record as “ND (^ <4%)”, the AN entry is given as “+ (≥4%)” and the AP entry is listed as “+ (≥4%)”. Besides, under setting [6], the AX entry is “ND (^ <4%)”, the CE entry is “ND (^ <4%)”, the HL entry is listed as “ND (^ <4%)” and the MS result was “ND (^ <4%)”. Also, under setting [6], the PS result is given as “ND (^ <4%)”, the SH result is listed as “ND (^ <4%)” and the UK result is “ND (^ <4%)”.

As to `CN(C)C1CCc2csc(C(F)(F)F)c2C1` (single isomer, unassigned) [Compound 120, N,N-dimethyl-3-(trifluoromethyl)-4,5,6,7-tetrahydro-2-benzothiophen-5-amine hydrochloride], under setting [2], the minimal effective dose is 3 mg/kg. Also, under setting [3], the AD entry is “ND (^ <4%)”, the AG entry is “ND (^ <4%)”, the AN entry is on record as “ND (^ <4%)” and the AP result is “++++ (≥74%)”. For the same compound, under setting [3], the AX entry is “ND (^ <4%)”, the CE entry was “ND (^ <4%)”, the HL result is “ND (^ <4%)” and the MS result is recorded as “ND (^ <4%)”. In addition, under setting [3], the PS result was “ND (^ <4%)”, the SH result is “ND (^ <4%)” and the UK entry was “ND (^ <4%)”.
